Data reported in article PMC7555825, “New Insights of the Zn(II)-Induced P2 × 4R Positive Allosteric Modulation: Role of Head Receptor Domain SS2/SS3, E160 and D170” (International Journal of Molecular Sciences, 2020).
Numbering of substitutions follows the chain as printed.

How the values were obtained:
rP2 × 2R [1] = target: T1, rP2 × 2R (Rattus norvegicus, UniProt P49653); settings: NEM treatment + Zn(II) group; control before treatment (first ATP curve)
T1 sequence (P49653 1-472): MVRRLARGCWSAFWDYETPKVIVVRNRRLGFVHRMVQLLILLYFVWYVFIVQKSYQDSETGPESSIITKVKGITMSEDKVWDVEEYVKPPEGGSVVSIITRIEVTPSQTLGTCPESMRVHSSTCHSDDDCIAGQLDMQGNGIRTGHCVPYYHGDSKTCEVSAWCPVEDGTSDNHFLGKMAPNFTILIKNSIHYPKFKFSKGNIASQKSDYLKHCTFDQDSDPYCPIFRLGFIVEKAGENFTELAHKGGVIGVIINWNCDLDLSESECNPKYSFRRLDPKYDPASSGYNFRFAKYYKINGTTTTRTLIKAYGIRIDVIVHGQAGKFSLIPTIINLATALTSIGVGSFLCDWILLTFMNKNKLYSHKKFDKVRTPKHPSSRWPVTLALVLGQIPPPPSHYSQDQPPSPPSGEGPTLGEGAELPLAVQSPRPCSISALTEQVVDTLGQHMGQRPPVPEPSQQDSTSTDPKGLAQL

rP2 × 4R E118Q mutant = target: T2, rP2 × 4R E118Q mutant (Rattus norvegicus, UniProt P51577, E118Q); experiment: ATP concentration–response curves, voltage clamp, E118Q mutant; format: cell-based; settings: 10 µM Zn(II)
T2 construct: host or cells: Xenopus laevis oocytes
T2 sequence (P51577 1-388 E118Q): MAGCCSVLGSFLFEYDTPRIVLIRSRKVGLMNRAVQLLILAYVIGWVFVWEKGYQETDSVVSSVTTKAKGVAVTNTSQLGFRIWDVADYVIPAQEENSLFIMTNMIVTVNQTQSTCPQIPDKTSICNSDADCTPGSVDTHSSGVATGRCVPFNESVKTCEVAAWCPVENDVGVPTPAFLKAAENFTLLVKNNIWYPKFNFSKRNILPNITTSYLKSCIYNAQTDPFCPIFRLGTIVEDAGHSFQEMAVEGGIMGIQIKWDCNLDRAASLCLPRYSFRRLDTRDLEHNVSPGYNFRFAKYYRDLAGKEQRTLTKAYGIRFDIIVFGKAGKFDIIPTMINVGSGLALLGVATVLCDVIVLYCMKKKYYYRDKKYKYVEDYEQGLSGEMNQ

rP2 × 4R = target: T3, rP2 × 4R (Rattus norvegicus, UniProt P51577); experiment: Short protocol: Zn(II) potentiation of single 10 µM ATP-evoked currents before/after thiol reagent treatment, rP2 × 4R oocytes; format: cell-based; settings: for fold increase of ATP-evoked currents by Zn(II): 10 µM ATP
T3 construct: host or cells: Xenopus laevis oocytes (intranuclear plasmid injection, pcDNA3)
T3 sequence (P51577 1-388): T2 sequence (P51577 1-388 E118Q) with Q118E
Method: (§1) A simpler and shorter assay to test the Zn(II) potentiation was developed to better assess the loss of Zn(II) modulation elicited by the joint co-treatment of NEM plus Zn(II). […] Ten minutes after alkylator washout, cells were treated with Zn(II) plus NEM or iodoacetamide (IA) for 5 min followed by 20 min of alkylator washout. Next, the P2 × R was tested again to examine the magnitude of the Zn(II) potentiation.
(§2) After 10 min of washout we applied 300 µM NEM, 300 µM IA, 300 µM IAc, or 300 µM DTNB for 5 min in absence or presence of Zn(II) (10 µM for rP2 × 4R and 30 µM for rP2 × 2R).
After 10 min of washout we applied 300 µM NEM + 10 µM DTT.

D170A mutant = system: D170A mutant; set-up: method as in Kasuya et al., (2016) 38; settings: ref Kasuya et al., (2016) 38; cited from earlier work
rP2 × 2R [2] = target: T1, rP2 × 2R; experiment: Short protocol: Zn(II) potentiation of single 10 µM ATP-evoked currents before/after thiol reagent treatment, rP2 × 2R oocytes; format: cell-based; set-up: expressed in transfected cells; host or cells: Xenopus laevis oocytes (intranuclear plasmid injection); settings: for times potentiation of ATP-evoked currents by Zn(II): 30 µM Zn(II)
Method: as §1, §2

rP2 × 2R [3] = target: T1, rP2 × 2R; set-up: expressed in transfected cells; host or cells: Xenopus laevis oocytes (intranuclear plasmid injection); method as in PMID 10737610, PMID 10188989, PMID 10322050, PMID 8622997; settings: P2 × 2R; cited from earlier work

Nc1ncnc2c1ncn2[C@@H]1O[C@H](COP(=O)(O)OP(=O)(O)OP(=O)(O)O)[C@@H](O)[C@H]1O [ATP, adenosine triphosphate]
Imax (rP2 × 2R [1]): 26.7 ± 3.5 µA

[Cl-].[Cl-].[Zn+2] [Zn(II), zinc chloride (ZnCl2)]
fold leftward shift of ATP concentration–response curve by Zn(II) (rP2 × 4R E118Q mutant): 13.6 fold
fold increase of ATP-evoked currents by Zn(II) (rP2 × 4R; 10 µM Zn(II), after 300 µM NEM plus 10 µM Zn(II) incubation): 1.3 ± 0.2 fold
fold increase of ATP-evoked currents by Zn(II) (rP2 × 4R; 10 µM Zn(II), after 300 µM NEM treatment (no Zn(II)) and washout): 1.6 ± 0.2 fold
fold increase of ATP-evoked currents by Zn(II) (rP2 × 4R; 10 µM Zn(II), before NEM plus Zn(II) incubation): 2.4 ± 0.3 fold
fold increase of ATP-evoked currents by Zn(II) (rP2 × 4R; 10 µM Zn(II), before NEM treatment): 1.8 ± 0.1 fold
fold potentiation of ATP-evoked currents by Zn(II) (rP2 × 4R; 10 µM Zn(II), before 10 µM DTT + 300 µM NEM treatment): 2.0 ± 0.2 fold
ATP plus Zn(II) current after DTT plus NEM treatment, fold for the first ATP application (rP2 × 4R; 10 µM Zn(II), no potentiation by Zn(II) observed): 2.4 ± 0.7 fold
fold potentiation of 10 µM ATP-evoked currents by Zn(II) (rP2 × 4R; 10 µM Zn(II), prior to any treatments): ~2 fold
fold Zn(II)-induced potentiation of ATP-evoked currents (rP2 × 4R; after 300 µM DTNB plus 10 µM Zn(II) treatment): 2.1 ± 0.4 fold
fold Zn(II)-induced potentiation of ATP-evoked currents (rP2 × 4R; after 300 µM IAc plus 10 µM Zn(II) treatment): 2.4 ± 0.7 fold
reversibility of the metal effect (rP2 × 4R; after 10 min washout initial 10 µM ATP-gated current fully recovered): reversible
fold Zn(II)-induced potentiation of ATP-evoked currents (rP2 × 4R; before DTNB plus Zn(II) treatment): 1.9 ± 0.3 fold
fold Zn(II)-induced potentiation of ATP-evoked currents (rP2 × 4R; before IAc plus Zn(II) treatment): 2.2 ± 0.2 fold
fold potentiation of the 3 µM ATP-gated currents (D170A mutant): 2 fold
times potentiation of ATP-evoked currents by Zn(II) (rP2 × 2R [2]; before IA + Zn(II) treatment, Figure 2F): 8.3 ± 4.0 times
times potentiation of ATP-evoked currents by Zn(II) (rP2 × 2R [2]; before NEM + Zn(II) treatment, Figure 2E): 11.4 ± 2.0 times
Zn(II) concentration potentiating the ATP-evoked currents (rP2 × 2R [2]; co-application with ATP, Figure S1 right): 30 to 300 µM
fold leftward displacement of the ATP concentration–response curve by Zn(II) (rP2 × 2R [3]): 5 fold
